Measurements from patent EP4644396A1 (Visionpharma (Nantong) Co., Ltd, priority 2022, dated 2024).

Columns and labels:
[1] = molecular target: T1, human TLR7 (Homo sapiens, UniProt Q9NYK1); assay: HEK-Blue hTLR7 SEAP reporter gene inhibition assay; format: cell-based; details: hTLR7 HEK-Blue cells, TLR7 ligand Gardiquimod 10 µM, 20 hours, SEAP by Quanti-blue; class symbols; read-out: HEK-Blue hTLR7 IC50
T1 sequence (Q9NYK1 27-1049): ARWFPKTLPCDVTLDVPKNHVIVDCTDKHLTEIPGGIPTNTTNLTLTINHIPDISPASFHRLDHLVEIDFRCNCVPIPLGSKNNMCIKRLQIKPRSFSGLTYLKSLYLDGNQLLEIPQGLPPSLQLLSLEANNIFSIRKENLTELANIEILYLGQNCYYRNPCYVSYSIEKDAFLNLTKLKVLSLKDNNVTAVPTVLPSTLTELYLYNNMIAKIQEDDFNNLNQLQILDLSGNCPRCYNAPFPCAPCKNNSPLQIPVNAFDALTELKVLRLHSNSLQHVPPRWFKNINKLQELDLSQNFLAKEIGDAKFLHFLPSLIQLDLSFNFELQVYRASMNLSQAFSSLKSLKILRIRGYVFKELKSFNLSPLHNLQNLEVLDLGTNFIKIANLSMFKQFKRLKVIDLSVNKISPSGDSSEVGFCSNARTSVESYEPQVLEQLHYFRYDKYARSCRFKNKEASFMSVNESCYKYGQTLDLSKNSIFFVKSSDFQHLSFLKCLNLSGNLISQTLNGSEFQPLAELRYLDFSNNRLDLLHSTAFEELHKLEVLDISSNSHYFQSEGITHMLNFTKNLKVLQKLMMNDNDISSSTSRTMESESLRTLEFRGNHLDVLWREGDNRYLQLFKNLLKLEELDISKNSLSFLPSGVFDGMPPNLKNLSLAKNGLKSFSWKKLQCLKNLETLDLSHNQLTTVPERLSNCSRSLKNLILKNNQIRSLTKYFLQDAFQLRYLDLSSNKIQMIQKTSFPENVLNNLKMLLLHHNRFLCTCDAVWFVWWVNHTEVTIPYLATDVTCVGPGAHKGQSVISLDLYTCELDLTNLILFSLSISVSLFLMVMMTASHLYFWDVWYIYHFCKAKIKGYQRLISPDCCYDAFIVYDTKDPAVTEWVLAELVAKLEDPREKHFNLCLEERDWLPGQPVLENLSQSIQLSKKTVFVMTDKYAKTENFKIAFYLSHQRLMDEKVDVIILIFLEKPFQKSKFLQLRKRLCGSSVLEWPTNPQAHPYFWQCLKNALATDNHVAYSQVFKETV
How it was run: (§1)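 Cells seeded (TLR7 line 80,000, TLR8 line 60,000 per well), compound added at 0.001–36 µM final for 15 min, then agonist at 10 µM final (Gardiquimod for TLR7) for 20 h. SEAP measured with Quanti-Blue; IC50 fitted.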

[2] = molecular target: T2, human TLR8 (Homo sapiens, UniProt Q9NR97); assay: HEK-Blue hTLR8 SEAP reporter gene inhibition assay; format: cell-based; details: hTLR8 HEK-Blue cells, TLR8 ligand 10 µM, 20 hours, SEAP by Quanti-blue; class symbols; read-out: HEK-Blue hTLR8 IC50
T2 construct: expressed in transfected cells
T2 sequence (Q9NR97 27-1041): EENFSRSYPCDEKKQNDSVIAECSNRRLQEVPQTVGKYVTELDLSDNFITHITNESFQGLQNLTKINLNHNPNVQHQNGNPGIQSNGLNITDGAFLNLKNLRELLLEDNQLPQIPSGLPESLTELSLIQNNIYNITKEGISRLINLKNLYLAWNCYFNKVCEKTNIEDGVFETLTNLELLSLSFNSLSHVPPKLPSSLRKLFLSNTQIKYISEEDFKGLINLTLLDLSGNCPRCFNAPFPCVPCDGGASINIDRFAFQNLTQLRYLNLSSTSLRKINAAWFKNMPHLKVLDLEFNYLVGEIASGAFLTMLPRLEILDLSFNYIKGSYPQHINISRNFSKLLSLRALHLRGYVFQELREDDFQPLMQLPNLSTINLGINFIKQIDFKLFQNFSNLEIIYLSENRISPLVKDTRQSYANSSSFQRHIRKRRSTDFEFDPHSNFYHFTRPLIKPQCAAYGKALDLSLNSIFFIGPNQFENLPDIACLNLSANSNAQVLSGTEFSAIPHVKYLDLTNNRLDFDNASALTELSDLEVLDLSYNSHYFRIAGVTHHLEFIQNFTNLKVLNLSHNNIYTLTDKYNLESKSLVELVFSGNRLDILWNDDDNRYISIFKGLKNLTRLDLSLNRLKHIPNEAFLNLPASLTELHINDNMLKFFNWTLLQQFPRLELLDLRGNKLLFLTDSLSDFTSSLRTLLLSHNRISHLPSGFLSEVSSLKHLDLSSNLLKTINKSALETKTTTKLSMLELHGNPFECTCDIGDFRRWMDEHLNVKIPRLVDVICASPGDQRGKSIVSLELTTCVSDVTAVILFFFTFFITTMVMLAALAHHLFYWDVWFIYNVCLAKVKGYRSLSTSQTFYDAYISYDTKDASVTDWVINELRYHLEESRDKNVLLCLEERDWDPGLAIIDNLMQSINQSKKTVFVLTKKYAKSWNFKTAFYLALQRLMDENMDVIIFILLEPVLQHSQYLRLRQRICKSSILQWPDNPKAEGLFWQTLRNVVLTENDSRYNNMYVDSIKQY
How it was run: as §1

| IC50 [1] [nM] | IC50 [2] [nM] | Compound |
| --- | --- | --- |
| < 50 | > 100 | C[C@@H]1CN(C(=O)CN2Cc3nn4c(c3C[C@@H]2C)CN(c2ccc(C#N)n3ncc(F)c23)C[C@H]4C)C[C@@H](C)N1 [Example I-146, 4-((4R,9S)-8-(2-((3R,5R)-3,5-dimethylpiperazin-1-yl)-2-oxoethyl)-4,9-dimethyl-3,4,7,8,9,10-hexahydropyrido[3',4':3,4]pyrazolo[1,5-a]pyrazin-2(1H)-yl)-3-fluoropyrazolo[1,5-a]pyridine-7-carbonitrile] |
| < 50 | > 100 | C[C@@H]1CN(c2ccc(C#N)n3ncc(F)c23)Cc2c3c(nn21)CN(CC(=O)N1CCCC1)[C@@H](C)C3 [Example I-151, 4-((4R,9S)-4,9-dimethyl-8-(2-oxo-2-(pyrrolidin-1-yl)ethyl)-3,4,7,8,9,10-hexahydropyrido[3',4':3,4]pyrazolo[1,5-a]pyrazin-2(1H)-yl)-3-fluoropyrazolo[1,5-a]pyridine-7-carbonitrile] |
| < 50 | > 100 | C[C@@H]1CN(c2ccc(C#N)n3ncc(F)c23)Cc2c3c(nn21)CN(CC(=O)N1CCC(F)(F)C1)[C@@H](C)C3 [Example I-152, 4-((4R,9S)-8-(2-(3,3-difluoropyrrolidin-1-yl)-2-oxoethyl)-4,9-dimethyl-3,4,7,8,9,10-hexahydropyrido[3',4':3,4]pyrazolo[1,5-a]pyrazin-2(1H)-yl)-3-fluoropyrazolo[1,5-a]pyridine-7-carbonitrile] |
| < 50 | > 100 | C[C@@H]1CN(c2ccc(C#N)n3ncc(F)c23)Cc2c3c(nn21)CN([C@@H]1CCNC1=O)[C@@H](C)C3 [Example I-155, 4-((4R,9S)-4,9-dimethyl-8-((R)-2-oxopyrrolidin-3-yl)-3,4,7,8,9,10-hexahydropyrido[3',4':3,4]pyrazolo[1,5-a]pyrazin-2(1H)-yl)-3-fluoropyrazolo[1,5-a]pyridine-7-carbonitrile] |
| > 50 | > 100 | CC(C(N)=O)N1Cc2nn3c(c2C[C@@H]1C)CN(c1ccc(C#N)n2ncc(F)c12)C[C@H]3C (stereo partly drawn) [Example I-156, 2-((4R,9S)-2-(7-cyano-3-fluoropyrazolo[1,5-a]pyridin-4-yl)-4,9-dimethyl-1,2,3,4,9,10-hexahydropyrido[3',4':3,4]pyrazolo[1,5-a]pyrazin-8(7H)-yl)propanamide] |
| > 50 | > 100 | C[C@@H]1CN(c2ccc(C#N)n3ncc(F)c23)Cc2c3c(nn21)CN([C@H]1CCNC1=O)[C@@H](C)C3 [Example I-157, 4-((4R,9S)-4,9-dimethyl-8-((S)-2-oxopyrrolidin-3-yl)-3,4,7,8,9,10-hexahydropyrido[3',4':3,4]pyrazolo[1,5-a]pyrazin-2(1H)-yl)-3-fluoropyrazolo[1,5-a]pyridine-7-carbonitrile] |
| < 50 | < 100 | C[C@@H]1CN(c2ccc(C#N)n3ncc(F)c23)Cc2c3c(nn21)CN(C[C@@H](O)CO)[C@@H](C)C3 [Example I-158, 4-((4R,9S)-8-((R)-2,3-dihydroxypropyl)-4,9-dimethyl-3,4,7,8,9,10-hexahydropyrido[3',4':3,4]pyrazolo[1,5-a]pyrazin-2(1H)-yl)-3-fluoropyrazolo[1,5-a]pyridine-7-carbonitrile] |
| > 50 | > 100 | C[C@@H]1CN(c2ccc(C#N)n3ncc(F)c23)Cc2c3c(nn21)CN(C(CO)CO)[C@@H](C)C3 [Example I-159, 4-((4R,9S)-8-(1,3-dihydroxypropan-2-yl)-4,9-dimethyl-3,4,7,8,9,10-hexahydropyrido [3',4':3,4]pyrazolo[1,5-a]pyrazin-2(1H)-yl)-3-fluoropyrazolo[1,5-a]pyridine-7-carbonitrile] |
| > 50 | > 100 | C[C@@H]1CN(c2ccc(C#N)n3ncc(F)c23)Cc2c3c(nn21)CN(C[C@H](O)CO)[C@@H](C)C3 [Example I-160, 4-((4R,9S)-8-((S)-2,3-dihydroxypropyl)-4,9-dimethyl-3,4,7,8,9,10-hexahydropyrido[3',4':3,4]pyrazolo[1,5-a]pyrazin-2(1H)-yl)-3-fluoropyrazolo[1,5-a]pyridine-7-carbonitrile] |
| < 50 | > 100 | C[C@@H]1Cc2c(nn3c2CN(c2ccc(C#N)n4ncc(F)c24)C[C@H]3C)[C@H](C)N1CC(N)=O [Example I-165, 2-((4R,7S,9R)-2-(7-cyano-3-fluoropyrazolo[1,5-a]pyridin-4-yl)-4,7,9-trimethyl-1,2,3,4,9,10-hexahydropyrido[3',4':3,4]pyrazolo[1,5-a]pyrazin-8(7H)-yl)acetamide] |
| < 50 | > 100 | C[C@@H]1CN(c2ccc(C#N)n3ncc(F)c23)Cc2c3c(nn21)CN(C1CCC1O)[C@@H](C)C3 (stereo partly drawn) [Example I-174, 3-Fluoro-4-((4R,9S)-8-(2-hydroxycyclobutyl)-4,9-dimethyl-3,4,7,8,9,10-hexahydropyrido[3',4':3,4]pyrazolo[1,5-a]pyrazin-2(1H)-yl)pyrazolo[1,5-a]pyridine-7-carbonitrile] |
| > 50 | > 100 | C[C@@H]1CN(c2ccc(C#N)n3ncc(F)c23)Cc2c3c(nn21)CN(CC1(N)COC1)[C@@H](C)C3 [Example I-184, 4-((4R,9S)-8-((3-aminooxetan-3-yl)methyl)-4,9-dimethyl-3,4,7,8,9,10-hexahydropyrido[3',4':3,4]pyrazolo[1,5-a]pyrazin-2(1H)-yl)-3-fluoropyrazolo[1,5-a]pyridine-7-carbonitrile] |
| < 50 | < 100 | C[C@@H]1CN(c2ccc(C#N)n3ncc(F)c23)Cc2c3c(nn21)C[C@](C)(N1CCC(O)C1)CC3 (stereo partly drawn) [Example I-187, 3-Fluoro-4-((4R,8R)-8-(3-hydroxypyrrolidin-1-yl)-4,8-dimethyl-3,4,7,8,9,10-hexahydropyrazino[1,2-b]indazol-2(1H)-yl)pyrazolo[1,5-a]pyridine-7-carbonitrile] |
| > 50 | < 100 | C[C@@H]1CN(c2ccc(C#N)n3ncc(F)c23)Cc2c3c(nn21)C[C@@](C)(N1CCC(O)C1)CC3 (stereo partly drawn) [Example I-188, 3-Fluoro-4-((4R,8S)-8-(3-hydroxypyrrolidin-1-yl)-4,8-dimethyl-3,4,7,8,9,10-hexahydropyrazino[1,2-b]indazol-2(1H)-yl)pyrazolo[1,5-a]pyridine-7-carbonitrile] |

| Compound | IC50 [1] [nM] | IC50 [2] [nM] |
| --- | --- | --- |
| COC(=O)C1(CN2Cc3nn4c(c3C[C@@H]2C)CN(c2ccc(C#N)n3ncc(F)c23)C[C@H]4C)CC1 [Example I-192, Methyl 1-(((4R,9S)-2-(7-cyano-3-fluoropyrazolo [1,5-a]pyridin-4-yl)-4,9-dimethyl-1,2,3,4,9,10-hexahydropyrido[3',4':3,4]pyrazolo[1,5-a]pyrazin-8(7H)-yl)methyl) cyclopropane-1-carboxylate] | > 50 | < 100 |
